One assay has as its target H1047R PIK3CA enzyme (Homo sapiens, UniProt P42336, H1047R). Description: ADP-Glo Biochemical PIK3CA Kinase Assay.
A further assay is described as follows: cells. The conditions noted are these: Homo sapiens, MCF-10A, read-out: MCF10A IC50.

Each structure is given as a SMILES string.

Data on 20 molecules can be found in US12581252B2, “Substituted pyrrolo[3,4-b]pyridines as PI3K-α inhibitors” (Relay Therapeutics, Inc., priority 2020, dated 2026).

Chain of H1047R PIK3CA enzyme (P42336 whole entry H1047R): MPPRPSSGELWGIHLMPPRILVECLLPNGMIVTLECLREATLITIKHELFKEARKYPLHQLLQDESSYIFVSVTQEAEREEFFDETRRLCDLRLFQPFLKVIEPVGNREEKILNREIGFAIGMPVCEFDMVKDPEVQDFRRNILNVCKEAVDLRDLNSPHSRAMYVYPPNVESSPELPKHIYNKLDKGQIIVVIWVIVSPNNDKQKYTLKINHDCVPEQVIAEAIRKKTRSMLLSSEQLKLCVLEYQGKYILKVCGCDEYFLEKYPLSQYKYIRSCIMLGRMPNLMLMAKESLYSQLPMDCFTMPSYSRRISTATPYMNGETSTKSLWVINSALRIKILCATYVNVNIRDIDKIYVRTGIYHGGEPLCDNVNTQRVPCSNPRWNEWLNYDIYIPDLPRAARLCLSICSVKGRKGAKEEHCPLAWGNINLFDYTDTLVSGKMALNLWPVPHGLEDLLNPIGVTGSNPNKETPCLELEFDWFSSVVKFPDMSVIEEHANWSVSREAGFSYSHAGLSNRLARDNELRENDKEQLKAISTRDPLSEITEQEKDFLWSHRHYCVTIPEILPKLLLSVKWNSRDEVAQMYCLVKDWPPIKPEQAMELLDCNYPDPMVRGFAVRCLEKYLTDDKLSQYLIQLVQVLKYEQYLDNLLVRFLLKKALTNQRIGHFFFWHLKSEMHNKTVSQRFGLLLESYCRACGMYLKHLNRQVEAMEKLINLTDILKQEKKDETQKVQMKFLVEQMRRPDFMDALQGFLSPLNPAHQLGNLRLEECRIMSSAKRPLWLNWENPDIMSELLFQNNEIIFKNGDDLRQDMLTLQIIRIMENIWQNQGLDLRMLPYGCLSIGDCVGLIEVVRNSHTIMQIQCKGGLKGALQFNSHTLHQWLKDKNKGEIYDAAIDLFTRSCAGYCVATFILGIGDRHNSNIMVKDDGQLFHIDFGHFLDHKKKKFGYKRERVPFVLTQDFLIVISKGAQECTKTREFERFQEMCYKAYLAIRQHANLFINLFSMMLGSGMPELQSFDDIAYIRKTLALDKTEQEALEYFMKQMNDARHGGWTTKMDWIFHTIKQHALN
Chain of H1047R PIK3CA enzyme (P27986 whole entry partner): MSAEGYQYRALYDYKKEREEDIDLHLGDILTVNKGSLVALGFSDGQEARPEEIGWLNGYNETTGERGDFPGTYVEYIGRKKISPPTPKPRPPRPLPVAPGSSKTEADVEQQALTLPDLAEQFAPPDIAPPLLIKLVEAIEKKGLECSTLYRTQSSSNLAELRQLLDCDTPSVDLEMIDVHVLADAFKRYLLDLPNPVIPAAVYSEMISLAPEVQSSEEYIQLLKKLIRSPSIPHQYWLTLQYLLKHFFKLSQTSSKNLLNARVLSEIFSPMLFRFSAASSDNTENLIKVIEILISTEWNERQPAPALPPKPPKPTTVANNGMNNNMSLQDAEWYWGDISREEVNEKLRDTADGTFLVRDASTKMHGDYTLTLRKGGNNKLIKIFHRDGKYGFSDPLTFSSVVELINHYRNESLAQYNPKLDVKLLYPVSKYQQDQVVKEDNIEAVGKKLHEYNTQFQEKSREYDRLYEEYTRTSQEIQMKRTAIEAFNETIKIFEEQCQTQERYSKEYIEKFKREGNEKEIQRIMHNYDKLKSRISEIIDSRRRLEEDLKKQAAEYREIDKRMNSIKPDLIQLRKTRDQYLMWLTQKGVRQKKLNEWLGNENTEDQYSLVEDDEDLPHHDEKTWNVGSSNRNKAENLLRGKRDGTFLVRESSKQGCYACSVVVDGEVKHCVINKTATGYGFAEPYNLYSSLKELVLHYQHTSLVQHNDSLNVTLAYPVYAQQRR

For the molecule `Cc1ccccc1C1NC(=O)c2cccc(NC(=O)c3nsc4ccccc34)c21` (stereo not shown) [Compound I-13, N-(1-Oxo-3-(o-tolyl)isoindolin-4-yl)benzo[d]isothiazole-3-carboxamide], the IC50 (usually the concentration that gives 50% inhibition) is 100 to 500 nM at H1047R PIK3CA enzyme and 1000 to 5000 nM in “cells”.
For `Cc1ccccc1C1NC(=O)c2cccc(NC(=O)c3coc4ccc(F)cc34)c21` (stereo not shown) [Compound I-19] the same measures were 500 to 1000 nM and 1000 to 5000 nM.
In the same order, the values of `O=C1N[C@@H](c2cccc(F)c2F)c2c(NC(=O)c3csc4ccccc34)ccnc21` [Compound I-22] are 500 to 1000 nM and 1000 to 5000 nM.
In the same order, the values of `[2H]C1(c2ccccc2C)NC(=O)c2cccc(NC(=O)c3csc4ccccc34)c21` (stereo not shown) [Compound I-25] are no more than 100 nM and 1000 to 5000 nM.
For `Cc1ccccc1C1NC(=O)c2cccc(NC(=O)c3csc4ccc(F)cc34)c21` (stereo not shown) [Compound I-26], the IC50 was 100 to 500 nM on H1047R PIK3CA enzyme and 1000 to 5000 nM in the assay “cells”.
In the same order, the values of `Cc1ccccc1C1NC(=O)c2cc(Br)cc(NC(=O)c3csc4ccccc34)c21` (stereo not shown) [Compound I-29, N-[6-bromo-3-(2-methylphenyl)-1-oxo-2,3-dihydro-1H-isoindol-4-yl]-1-benzothiophene-3-carboxamide] are no more than 100 nM and less than 1000 nM.
As to `O=C1N[C@H](c2ccccc2Cl)c2c(NC(=O)c3csc4ccccc34)ccnc21` [Compound I-33], the figures for the IC50 against H1047R PIK3CA enzyme and in the assay “cells” were 100 to 500 nM and 1000 to 5000 nM, respectively.
In the case of `Cc1ccccc1C1NC(=O)c2cc(N)cc(NC(=O)c3csc4ccccc34)c21` (stereo not shown) [Compound I-34], the IC50 is no more than 100 nM against H1047R PIK3CA enzyme and 1000 to 5000 nM in “cells”.
`COc1ccc(NC(=O)c2csc3ccccc23)c2c1C(=O)NC2c1ccccc1C` (stereo not shown) [Compound I-35]: the IC50 at H1047R PIK3CA enzyme was no more than 100 nM; in the assay “cells” it was 1000 to 5000 nM.
In the same order, the values of `Cc1ccccc1[C@H]1NC(=O)c2cccc(NC(=O)c3csc4c(F)cccc34)c21` [Compound I-38] are 100 to 500 nM and 1000 to 5000 nM.
Regarding `CNc1cc(NC(=O)c2csc3ccccc23)c2c(c1)C(=O)NC2c1ccccc1C` (stereo not shown) [Compound I-39], the IC50 at H1047R PIK3CA enzyme was no more than 100 nM; in “cells” it was 1000 to 5000 nM.
In the same order, the values of `Cc1ccccc1C1NC(=O)c2cc(N)cc(NC(=O)c3cc(F)cc(C(F)(F)F)c3)c21` (stereo not shown) [Compound I-40] are no more than 100 nM and 1000 to 5000 nM.
`Cc1ccccc1C1NC(=O)c2cccc(NC(=O)N3CCc4ccccc43)c21` (stereo not shown) [Compound I-43, N-[3-(2-methylphenyl)-1-oxo-2,3-dihydro-1H-isoindol-4-yl]-2,3-dihydro-1H-indole-1-carboxamide]: the IC50 against H1047R PIK3CA enzyme was no more than 100 nM; in the assay “cells”, 1000 to 5000 nM.
For `Cc1ccccc1C1NC(=O)c2cccc(NC(=O)N3CC(C)(C)c4ccccc43)c21` (stereo not shown) [Compound I-45] the same measures were 1000 to 10000 nM and 10000 to 36000 nM.
In the same order, the values of `Cc1ccccc1C1NC(=O)c2cccc(NC(=O)c3csc4cnccc34)c21` (stereo not shown) [Compound I-46] are 100 to 500 nM and 10000 to 36000 nM.
In the same order, the values of `Cc1ccccc1C1NC(=O)c2cc(N)cc(NC(=O)c3nsc4ccccc34)c21` (stereo not shown) [Compound I-50, N-[6-Amino-3-(2-methylphenyl)-1-oxo-2,3-dihydro-1H-isoindol-4-yl]-1,2-benzothiazole-3-carboxamide] are no more than 100 nM and less than 1000 nM.
For `Cc1ccccc1C1NC(=O)c2cc(NC3COC3)cc(NC(=O)c3csc4ccccc34)c21` (stereo not shown) [Compound I-51], the IC50 is no more than 100 nM on H1047R PIK3CA enzyme and less than 1000 nM in the assay “cells”.
In the same order, the values of `CC(=O)Nc1cc(NC(=O)c2csc3ccccc23)c2c(c1)C(=O)NC2c1ccccc1C` (stereo not shown) [Compound I-52] are no more than 100 nM and less than 1000 nM.
For `Cc1ccccc1C1NC(=O)c2cc(NC(C)C)cc(NC(=O)c3csc4ccccc34)c21` (stereo not shown) [Compound I-53] the same measures were no more than 100 nM and less than 1000 nM.
For `Cc1ccccc1C1NC(=O)c2cc(Br)cc(NC(=O)c3cc(F)cc(C(F)(F)F)c3)c21` (stereo not shown) [Compound I-54] the same measures were 100 to 500 nM and 1000 to 5000 nM.
